In patent US11969511B2, “Methods and compositions for antimicrobial treatment” (UNM Rainforest Innovations, priority 2015, dated 2024):
Values after ≈ are worked out from the molar mass of the structure shown. Structures can show the parent of a compound that is named as a salt.

Key:
P. aeruginosa biofilms = experiment: Minimum inhibitory concentration, biofilm phase (XTT); assay type: cell-based, Pseudomonas aeruginosa PAO1; conditions: 24 h
Procedure: Biofilm phase. P. aeruginosa biofilms were developed in sterile 96 well plates (BD biosciences, USA) as described above. Biofilms were washed twice with PBS and ciprofloxacin was administered in a concentration gradient (two fold). The plates were incubated for 24 h at 37° C. and 80 rpm. At the end of incubation period, XTT reduction assay was performed to quantify the viability of biofilms. […] The assay was performed quadruplicates at three times.

P. aeruginosa = experiment: Minimum inhibitory concentration of tobramycin (dilution series, plating); assay type: cell-based; conditions: Pseudomonas aeruginosa
Procedure: Determination of minimum inhibitory concentration of tobramycin. […] Afterwards, tobramycin was serially diluted into 1 mL of DI H2O and added to the 1 mL aliquots of overnight bacterial culture to the final concentrations of tobramycin ranging from 25 to 250 μg/mL, with 25 μg/mL increments. For the control, 1 mL of sterile DI H2O was added to the aliquot of the culture. The cultures were then grown overnight on a rotary shaker at 37° C. and 150 rpm. The next day, 50 μL aliquots of the overnight cultures were diluted 1:2 with TSB, plated on the TS nutrient agar plates, and grown for 24 hours at 37° C. The next-day plates were checked for the presence of bacterial colonies. […] These findings introduce a starting point for inhibition of established biofilms. This is the MIC for tobramycin alone, without attachment to NPs.

P. aeruginosa biofilm = experiment: Biofilm-inhibition through mucin and alginate barriers (in vitro CF biofilm model, disks); assay type: cell-based, Pseudomonas aeruginosa; parameters: key to Sensitivity, Mucin barrier / Sensitivity, Alginate barrier / Sensitivity, Both barriers: S for sensitive; I for intermediate; R for resistant; conditions: tobramycin 2 mg/mL; for Sensitivity, Alginate barrier / Sensitivity, Both barriers / Sensitivity, Mucin barrier: NPs 50 mg/mL; for Biofilm inhibition (number), Alginate barrier / Biofilm inhibition (number), Both barriers / Biofilm inhibition (number), Mucin barrier: NPs alginate capped 50 mg/mL
Text: Disk diffusion method. The disk diffusion method is one of the most popular approaches to bacterial sensitivity testing due to its low cost and efficiency. The disk, impregnated with a candidate antibiotic drug or compound of interest, is placed on the inoculated agar; which contains a uniform layer of bacteria taken from liquid culture. The disks are commercially available, containing the proper concentrations of antibiotic drugs based on […]. As a low-cost alternative, disks may be prepared using filter paper soaked in the appropriate aqueous concentrations of the antibiotic drugs of interest. The underside of the plate is numbered for each sample to be tested. The cultures are distributed evenly onto a sterile agar plate using a sterile cotton swab to form a uniform layer on the agar. The disks, impregnated with NPs, drug, or NP-drug conjugates are then placed on top of the agar. The cultures are allowed to grow in the previous conditions overnight (16-18 hours). For these experiments, an vitro biofilm model was that would mimic the infection in CF in which there is an alginate and mucin barrier to drug diffusion.

[1] = after magnetic treatment at 24 hours

Compound	MIC80 of P. aeruginosa biofilms (P. aeruginosa biofilms) [µg/mL]	MIC (P. aeruginosa; biofilm cells) [µg/mL]	MIC (P. aeruginosa; planktonic cells) [µg/mL]	Sensitivity, Alginate barrier (P. aeruginosa biofilm; [1])	Sensitivity, Both barriers (P. aeruginosa biofilm; [1])	Sensitivity, Mucin barrier (P. aeruginosa biofilm; [1])	Biofilm inhibition (number), Alginate barrier (P. aeruginosa biofilm; [1])	Biofilm inhibition (number), Both barriers (P. aeruginosa biofilm; [1])	Biofilm inhibition (number), Mucin barrier (P. aeruginosa biofilm; [1])	Sensitivity, Alginate barrier (P. aeruginosa biofilm; no magnetic treatment)	Sensitivity, Both barriers (P. aeruginosa biofilm; no magnetic treatment)	Sensitivity, Mucin barrier (P. aeruginosa biofilm; no magnetic treatment)	Biofilm inhibition (number), Alginate barrier (P. aeruginosa biofilm; no magnetic treatment)	Biofilm inhibition (number), Both barriers (P. aeruginosa biofilm; no magnetic treatment)	Biofilm inhibition (number), Mucin barrier (P. aeruginosa biofilm; no magnetic treatment)
O=C(O)c1cn(C2CC2)c2cc(N3CCNCC3)c(F)cc2c1=O [Cipro, Ciprofloxacin hydrochloride]	1	–	–	–	–	–	–	–	–	–	–	–	–	–	–
NC[C@H]1O[C@H](O[C@H]2[C@H](O)[C@@H](O[C@H]3O[C@H](CO)[C@@H](O)[C@H](N)[C@H]3O)[C@H](N)C[C@@H]2N)[C@H](N)C[C@@H]1O [Tobramycin, tobramycin]	–	50 (≈ 107 µM)	15 (≈ 32.1 µM)	S	S	S	30	20	32	S	S	S	40	40	30
